Source: patent US7119121B2, “3,3-diphenylpropylamines useful in therapy” (Pfizer Inc., priority 2003, dated 2006)

What was measured:
P450 CYP2D6 enzyme = P450 CYP2D6 enzyme (Homo sapiens, UniProt P10635); assay: Protection from CYP2D6 metabolism (microsome incubation, HPLC); type: in vitro ADME; settings: approx. 10 μM [14C]-labeled compound, microsomes with CYP2D6 (20 pmol), 1 mM β-NADPH, pH 7.4, 37° C., 20 min
Procedure: [^14C]-labeled N,N-diisopropyl-3-(2-hydroxy-5-trifluoromethylphenyl)-3-phenylpropanamine is synthesized, following the general procedure of examples 1–9. Approximately 10 μM of the compound is incubated with microsomes containing P450 CYP2D6 enzyme (20 pmol) in 100 mM potassium phosphate buffer (pH 7.4) and 1 mM β-NADPH at 37° C. in a final volume of 250 μl for 20 min.
The incubations are analyzed for the parent drug and its metabolites by HPLC using standard procedures. The amount of each metabolite is calculated from the resulting radiochromatogram. The retention times of formed metabolites are compared with the retention times of synthesized reference standards, and the identity of the formed metabolites is further confirmed by electrospray ionization mass spectrometry.

[1] = molecular target: T1, muscarinic receptor subtype M2 (Homo sapiens, UniProt P08172); assay: In vitro muscarinic receptor binding assay ([3H]NMS competition, SPA); settings: cloned human receptors in CHO cell membranes, [3H]N-methylscopolamine, average of four determinations
T1 construct: purchased Receptor Biology division of Perkin Elmer Life Sciences (Beltsville, Md.)
T1 sequence (P08172 1-466): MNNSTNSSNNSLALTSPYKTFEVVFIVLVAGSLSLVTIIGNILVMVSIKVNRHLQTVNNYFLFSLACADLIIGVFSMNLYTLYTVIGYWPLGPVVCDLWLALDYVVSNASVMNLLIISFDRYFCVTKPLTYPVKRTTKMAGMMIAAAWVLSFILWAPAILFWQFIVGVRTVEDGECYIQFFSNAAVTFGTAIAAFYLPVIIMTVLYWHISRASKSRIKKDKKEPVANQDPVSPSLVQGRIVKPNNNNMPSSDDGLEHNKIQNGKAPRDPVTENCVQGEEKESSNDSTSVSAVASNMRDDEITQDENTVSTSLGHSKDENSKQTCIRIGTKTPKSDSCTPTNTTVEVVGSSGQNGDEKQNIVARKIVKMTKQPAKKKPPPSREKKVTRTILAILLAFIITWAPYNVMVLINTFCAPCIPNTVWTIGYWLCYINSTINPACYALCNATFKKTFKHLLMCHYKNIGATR
Procedure: (§1) Affinities of test compounds for muscarinic receptor subtypes M1–M4 were determined. Competition radioligand binding experiments employed 11 drug concentrations run in duplicate. [^3H]N-methylscopolamine (NMS) was used as an antagonist radioligand, at the concentration equal to its equilibrium dissociation constant (Kd) for each receptor subtype. […] Total binding was determined with phosphate buffered saline (PBS). Cloned human receptors permanently expressed in CHO cells were the source of all binding sites. Membranes were purchased from Receptor Biology division of Perkin Elmer Life Sciences (Beltsville, Md.). The assays were run in scintillation proximity assay (SPA) format. Binding mixtures were made in flexible, 96-well, Wallac Micro-Beta plates by the addition of 11 μl of drug dilution, 11 μl of radioligand, and 178 μl of membrane/SPA bead suspension (100 mg of WGA-coated SPA beads, incubated with 5–15 μg protein/plate in 10 ml PBS for 30 min at room temperature, followed by low-speed centrifugation and resuspension in 2 ml PBS). After sealing and incubation at room temperature for 1 hour the plates were counted in a Wallac Micro-Beta scintillation counter. IC50 values were estimated by fitting the data to a one-site competition model: Y=T/(1+10^log(x)−log(IC50)), where Y is the specific CPM's bound at concentration X, and T is the specific CPM's bound in the absence of competitor. Inhibition constants (Ki) were calculated using the Cheng-Prushoff equation (Cheng, Y; Prushoff, W H, Biochem Pharmacol 22: 3099–3108, 1973). Curve fitting and Ki calculations were carried out using GraphPad Prism, version 3.0 (San Diego, Calif.).
(§2) Results are the average of four separate determinations. In vitro Binding

[2] = molecular target: T2, muscarinic receptor subtype M3 (Homo sapiens, UniProt P20309); assay: as above; settings: cloned human receptors in CHO cell membranes, [3H]N-methylscopolamine, average of four determinations
T2 construct: purchased Receptor Biology division of Perkin Elmer Life Sciences (Beltsville, Md.)
T2 sequence (P20309 whole entry): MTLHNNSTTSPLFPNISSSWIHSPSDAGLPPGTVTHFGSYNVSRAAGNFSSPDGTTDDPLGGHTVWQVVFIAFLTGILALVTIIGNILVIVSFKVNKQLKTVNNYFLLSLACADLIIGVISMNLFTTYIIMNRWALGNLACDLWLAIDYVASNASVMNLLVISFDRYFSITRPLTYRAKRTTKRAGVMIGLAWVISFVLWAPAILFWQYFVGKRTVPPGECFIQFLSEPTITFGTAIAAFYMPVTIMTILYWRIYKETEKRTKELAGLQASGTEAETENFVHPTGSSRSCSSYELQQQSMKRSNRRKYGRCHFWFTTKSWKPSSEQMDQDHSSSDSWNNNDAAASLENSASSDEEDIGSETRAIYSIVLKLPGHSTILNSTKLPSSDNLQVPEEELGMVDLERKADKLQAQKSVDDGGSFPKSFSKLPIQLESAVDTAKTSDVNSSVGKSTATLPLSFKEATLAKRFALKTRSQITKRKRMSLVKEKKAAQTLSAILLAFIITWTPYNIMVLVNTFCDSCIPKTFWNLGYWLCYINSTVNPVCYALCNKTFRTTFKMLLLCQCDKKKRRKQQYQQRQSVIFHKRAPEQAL
Procedure: as §1, §2

[3] = molecular target: T3, muscarinic receptor subtype M4 (Homo sapiens, UniProt P08173); assay: as above; settings: cloned human receptors in CHO cell membranes, [3H]N-methylscopolamine, average of four determinations
T3 construct: purchased Receptor Biology division of Perkin Elmer Life Sciences (Beltsville, Md.)
T3 sequence (P08173 1-479): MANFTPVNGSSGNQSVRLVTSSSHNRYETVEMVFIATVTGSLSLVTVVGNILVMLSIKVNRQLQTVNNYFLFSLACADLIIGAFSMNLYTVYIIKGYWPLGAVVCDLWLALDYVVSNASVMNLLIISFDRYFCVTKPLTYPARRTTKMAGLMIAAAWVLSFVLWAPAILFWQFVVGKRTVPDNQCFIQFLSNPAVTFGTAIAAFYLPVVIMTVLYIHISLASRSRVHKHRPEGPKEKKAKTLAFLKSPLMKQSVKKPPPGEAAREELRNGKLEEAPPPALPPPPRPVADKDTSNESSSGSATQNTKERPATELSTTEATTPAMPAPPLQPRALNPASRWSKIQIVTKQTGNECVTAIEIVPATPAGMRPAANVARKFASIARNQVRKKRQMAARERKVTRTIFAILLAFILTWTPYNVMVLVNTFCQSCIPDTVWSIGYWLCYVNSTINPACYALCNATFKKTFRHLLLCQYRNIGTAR
Procedure: as §1, §2

[4] = molecular target: T4, muscarinic receptor subtype M1 (Homo sapiens, UniProt P11229); assay: as above; settings: cloned human receptors in CHO cell membranes, [3H]N-methylscopolamine, average of four determinations
T4 construct: purchased Receptor Biology division of Perkin Elmer Life Sciences (Beltsville, Md.)
T4 sequence (P11229 1-460): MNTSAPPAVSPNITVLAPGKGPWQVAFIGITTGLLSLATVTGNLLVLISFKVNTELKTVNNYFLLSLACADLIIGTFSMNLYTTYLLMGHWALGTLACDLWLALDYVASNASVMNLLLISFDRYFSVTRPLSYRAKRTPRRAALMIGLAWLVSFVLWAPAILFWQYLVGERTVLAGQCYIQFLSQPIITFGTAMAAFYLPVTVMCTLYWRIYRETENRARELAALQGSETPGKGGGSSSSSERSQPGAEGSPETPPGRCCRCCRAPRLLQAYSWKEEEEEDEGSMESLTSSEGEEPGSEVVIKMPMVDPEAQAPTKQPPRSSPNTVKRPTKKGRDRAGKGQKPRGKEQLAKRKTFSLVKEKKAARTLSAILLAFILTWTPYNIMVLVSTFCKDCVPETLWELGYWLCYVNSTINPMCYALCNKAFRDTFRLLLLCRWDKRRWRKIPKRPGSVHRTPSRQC
Procedure: as §1, §2

Chain of P450 CYP2D6 enzyme (P10635 whole entry): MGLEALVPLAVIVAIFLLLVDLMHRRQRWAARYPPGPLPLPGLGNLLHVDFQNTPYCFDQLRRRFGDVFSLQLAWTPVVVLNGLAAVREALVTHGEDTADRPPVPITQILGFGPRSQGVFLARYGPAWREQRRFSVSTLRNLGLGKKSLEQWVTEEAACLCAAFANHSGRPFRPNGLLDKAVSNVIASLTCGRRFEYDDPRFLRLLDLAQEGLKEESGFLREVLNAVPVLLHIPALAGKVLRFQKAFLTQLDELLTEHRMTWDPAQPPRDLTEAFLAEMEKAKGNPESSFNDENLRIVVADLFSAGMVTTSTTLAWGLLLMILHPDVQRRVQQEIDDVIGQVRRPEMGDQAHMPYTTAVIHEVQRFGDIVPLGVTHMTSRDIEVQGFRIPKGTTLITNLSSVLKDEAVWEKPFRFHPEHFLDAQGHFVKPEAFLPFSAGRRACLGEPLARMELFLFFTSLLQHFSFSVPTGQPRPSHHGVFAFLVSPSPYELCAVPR

Row | Compound | oxidation/hydroxylation by P450 CYP2D6 enzyme (P450 CYP2D6 enzyme) | Ki [1] [nM] | Ki [2] [nM] | Ki [3] [nM] | Ki [4] [nM]
1 | CC(C)N(CCC(c1ccccc1)c1cc(C(F)(F)F)ccc1O)C(C)C (racemic) [N,N-Diisopropyl-3-(2-hydroxy-5-trifluoro-methylphenyl)-3-phenylpropanamine] | not readily hydroxylated at the 5-trifluoromethyl substituent | 8.4 | 16 | 6 | 3.9
2 | Cc1ccc(O)c([C@H](CCN(C(C)C)C(C)C)c2ccccc2)c1 [tolterodine, 2-[(1R)-3-(diisopropylamino)-1-phenylpropyl)-4-methylphenol, reference compound] | – | – | – | 0.64 | 0.79
